Here are results for 1 compound from patent US6177592A, “Compounds” (priority 1997, dated 2001).

The target of one assay is T1, topoisomerase I (Homo sapiens, UniProt P11387).
T1 construct: pBR322 supercoil relaxation assay
As to the kind of experiment: Topoisomerase I inhibition. The format is biochemical. The following applies: 1 mM GM. As to the method:
(2) Activity of GM for inhibiting the topoisomerase I was measured by the same method as in Example 17-(1) except that topoisomerase I [manufacturedby TopoGEN, 0.01 unit/y 1] was used instead of topoisomerase II; and 100 mM Tris-HCl (pH 7.9), 10 mM EDTA, 1 mM spermidine and 50% glycerol were used as a buffer with a ten-fold diluted concentration. Incidentally, as a sample, GM was added to make the final concentration 1 mM.

A further assay deals with Jurkat cells. Put plainly: Growth of Jurkat cells (MTT). The following applies: 24 hours. The format is cell-based, human. As to the method: (1) Jurkat cells (ATCC TIB-152) and Molt-3 cells (ATCC CRL-1552) which were human T cell leukemia cell stain were incubated in an RPMI 1640 medium (manufactured by Gibco BRL) containing 10% fetal calf serum (FCS, manufactured by Bio Whittaker) at 37° C. in the presence of 5% CO2 and the cells were then suspended in the above-mentioned medium containing 0, 5, 10 or 20 μM of GM to make the cell numbers 5×10^5 cells/ml followed by incubating for 24 hours. Cell growth was measured by an MTT method [Mosmann, et al.: J. Immunol. Methods, volume 65, pages 55-63 (1983)] wherein degree of cell growth was determined by the absorbance at 560 nm.

A further assay relates to antigen-specific IgE. As to the kind of experiment: Antigen-specific IgE production (48-hour rat PCA). The format is in vivo, rat (Wistar). The following applies: for IgE Titer: three days, control 64. As to the method: Yale rats of Wistar strain of five weeks age (one group consisting of five rats) (Nippon SLC) were sensitized by an intraperitoneal injection of 100 μl of 0.01% solution of egg white albumin (Sigma) in an aqueous physiological saline solution and 100 μl of Alum (trade name: Imject Alum; Pierce) and, after 14 days, blood was collected from abdominal artery.
The collected blood was centrifuged (at 2000 rpm for five minutes), plasma was separated and the amount of antigen-specific IgE was measured by a 48-hour rat passive cutaneous anaphylaxis (PCA) reaction.
Thus, serum was diluted with a physiological saline solution in a successively doubling manner ranging from 1/4 to 1/64 and each 0.1 ml thereof was subcutaneously injected to hair-clipped back of male rats of Wistar strain of seven weeks age. After 48 hours from the subcutaneous injection, 1 ml of a mixture of 0.05% egg white albumin and 0.5% Evans Blue (manufactured by Nacalai Tesque) was injected from tail vein. After 30 minutes from the injection from the tail vein, rats were subjected to decapitation and to exanguinated death, blue spots appeared on the back were observed, the spots with a diameter of 5 mm or more were judged to be positive and the highest dilution was adopted as an IgE titer.
In the GM-administered groups, 3 mg/kg or 30 mg/kg of GM was intraperitoneally administered once daily for three days from the antigen-sensitized day while, in the control group, distilled water was intraperitoneally administered by the same manner.

SMILES strings stand for the structures.

The inhibition is the drop in the measured response relative to a control, in per cent.

T1 sequence (P11387 whole entry): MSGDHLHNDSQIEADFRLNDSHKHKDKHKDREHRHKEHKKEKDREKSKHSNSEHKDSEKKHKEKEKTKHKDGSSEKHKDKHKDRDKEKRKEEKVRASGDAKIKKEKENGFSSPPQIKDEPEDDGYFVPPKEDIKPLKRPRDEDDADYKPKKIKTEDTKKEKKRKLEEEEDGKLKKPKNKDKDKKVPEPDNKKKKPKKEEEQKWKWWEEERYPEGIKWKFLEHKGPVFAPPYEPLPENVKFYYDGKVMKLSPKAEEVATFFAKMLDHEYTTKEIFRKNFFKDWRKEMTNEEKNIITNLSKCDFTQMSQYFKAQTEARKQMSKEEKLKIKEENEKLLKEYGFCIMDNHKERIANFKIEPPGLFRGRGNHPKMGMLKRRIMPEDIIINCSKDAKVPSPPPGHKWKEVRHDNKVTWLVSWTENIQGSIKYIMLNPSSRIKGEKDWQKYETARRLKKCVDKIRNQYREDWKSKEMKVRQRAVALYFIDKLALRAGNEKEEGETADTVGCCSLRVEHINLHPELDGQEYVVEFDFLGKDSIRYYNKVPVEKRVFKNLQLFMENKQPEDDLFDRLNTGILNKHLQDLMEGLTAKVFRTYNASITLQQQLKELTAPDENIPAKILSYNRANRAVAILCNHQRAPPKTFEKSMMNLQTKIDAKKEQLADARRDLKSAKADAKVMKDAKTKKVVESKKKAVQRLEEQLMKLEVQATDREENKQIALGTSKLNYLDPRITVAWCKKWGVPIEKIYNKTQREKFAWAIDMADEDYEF

For the compound `N[C@@H](CCC(=O)N[C@@H](CSC1C=C(O)C(=O)C1)C(=O)NCC(=O)O)C(=O)O` (stereo partly shown) [GM, 2-hydroxy-4-glutathion-S-yl-2-cyclopenten-1-one], the “inhibition of topoisomerase I” value against topoisomerase I is “topoisomerase I was inhibited by 1 mM GM”. In addition, in the assay on Jurkat cells (5 μM or less), the “effect in the growth of cells” value is reported as “no significant effect in the growth of cells”. The inhibition at 10 µM with Jurkat cells (Homo sapiens, 10 μM, read-out: inhibition of cell growth) was about 50%. In addition, the inhibition at 20 µM in the assay on Jurkat cells (Homo sapiens, 20 μM, read-out: inhibition of cell growth) is at least 75%. The “IgE Titer” value with antigen-specific IgE (3 mg/kg/day i.p.) is reported as 32; with antigen-specific IgE (30 mg/kg/day i.p.), 8. Besides, the “inhibiting activity to IgE production (in words)” value in the assay with antigen-specific IgE (rat, in vivo) is on record as “inhibited by administration of GM in a dose-dependent manner”.
